Data: patent US9023340B2, “Wnt inhibitors for human stem cell differentiation” (ChemRegen, Inc., priority 2011, dated 2015)

Assays:
[1] = test system: hESC H9 lines carrying MYH6-mCherry reporters; experiment: Human embryonic stem cell high content screening assay (cardiogenesis, MYH6-mCherry reporter); assay type: cell-based; settings: 1250 nM compound; MYH6-mCherry fluorescence readout normalized to DMSO treated wells
Protocol: Human embryonic stem cell (hESC) H9 lines carrying MYH6-mCherry reporters were maintained: in brief, cells were grown on a mouse embryonic fibroblast coated matrigel plate in Knock Out DMEM media supplemented with 20% Knock Out Serum Replacement and 8 ng/ml bFGF. For embryoid body (EB) differentiation, hESC were mechanically passaged onto gelatin-coated dishes preseeded with mouse embryonic fibroblasts. After 4 days hESC colonies were lifted off with a 10 minute 1 mg/ml collagenase IV treatment and directly differentiated in StemPro 34 with addition of 0.5 ng/ml Bmp4 from day 0-1, 10 ng/ml Bmp4, 5 ng/ml bFGF and 3 ng/ml Activin A from day 1-4. At day 4 and were dissociated gently to single cells with TrypLE. Single cells were then transferred in gelatin coated 384-well optical plates in StemPro 34 with […] FGF at a seeding density of 250,000 cells/cm^2. At this point cells were exposed to test compounds. At day 10, media with compound was removed and exchanged for a serum free media (SFM). T3, the thyroid hormone analog triiodothyronine, was added at day 10 to increase the red signal driven by the MYH6 promoter for more reliable imaging. […] For RT-qPCR analysis T3 treatment was omitted to avoid interference with the biological mRNA expression of MYH6. Media was changed to PBS at day 14 and red fluorescence was imaged on an InCell 1000 high throughput microscope. For the quantification of cardiac induction, image analysis was done with the Cyteseer Image Analysis Software package by measuring the total area and intensity of the MYH6-mCherry reporter in each well. The MYH6-expression levels indicated in the graphs represent the multiplication of the total area and intensity of red fluorescence.
For toxicity assessment the hESC cell line was engineered for screening with a H2B-GFP reporter, allowing quantification of the cell number. Using Cyteseer, total GFP signal was quantified in each well. Wells with a GFP reduction of 20% or more (relative to vehicle only controls) were flagged for toxicity and were manually confirmed under a bright field microscope for evidence of cell death.
For the screens, Z scores (Z score=(average of treated−average of DMSO)/StDev of DMSO) were calculated using the fluorescence readout for each concentration normalized to DMSO treated wells. Integrated Z scores over all concentrations were calculated by adding the Z scores of the 3 concentrations tested. Table 2 reports Z scores at a compound concentration of 1250 nM.

Wnt signaling = experiment: Wnt assay (Super TOPflash/Wnt3a dual-luciferase reporter in 293T cells); assay type: cell-based; settings: Homo sapiens, HEK-293T, TOPflash luciferase normalized to renilla; for inhibition at 1 µM: 1000 nM compound, read-out: Wnt Assay % inh. @ 1000 nM
Protocol: Wnt assay protocol: 293T cells were grown in DMEM-high glucose (phenol red) supplemented with 10% (v/v) FBS and 1 mM L-glutamine. 1 million (M) cells were transfected with 1 μg Super(7×)TOPflash (Addgene plasmid 12456: M50 Super 8× TOPflash; 1 μg Wnt3a)—and 0.1 μg TK-Renilla-Lux (pRL-TK vector)-vectors using lipofectamine 2000 reagent according to the manufacturer's protocol. Cells were allowed to adhere for 8-10 hours, lifted with trypsin/EDTA, centrifuged, homogenized and counted before seeding 25,000 cells/well onto 96-well plates. After letting cells settle and attach for 1-2 hours in the incubator, a dose of test compound (and media/DMSO controls) was added. Plates were incubated for 18-20 hours and luciferase activities were determined using a Dual-Luciferase assay kit according to the manufacturer's instructions. Chemiluminescence was recorder on a plate reader instrument, and firefly-derived luminescence was normalized against renilla luminescence. Data were derived from at least two independent experiments, with a minimum of three replicates per condition. Non-linear regression analysis (log dose/response) was done using Prism 5 software.

SMILES | Cardiogenesis Assay Z score vs DMSO @ 1250 nM [1] | IC50 (Wnt signaling) [nM] | inhibition at 1 µM (Wnt signaling) [%]
O=C1[C@@H]2[C@@H]3CC[C@@H](C3)[C@@H]2C(=O)N1[C@H]1CC[C@H](C(=O)Nc2cccnc2)CC1 [Compound 1] | 0.6 | 42 | 
O=C1[C@@H]2[C@@H]3CC[C@@H](C3)[C@@H]2C(=O)N1[C@H]1CC[C@H](C(=O)Nc2ccncc2)CC1 [Compound 2] | 0.2 | 47 | 
CC(=O)c1ccccc1NC(=O)[C@H]1CC[C@H](N2C(=O)[C@@H]3[C@@H]4CC[C@@H](C4)[C@@H]3C2=O)CC1 [Compound 3] | 132.9 | 14 | 91 ± 1
O=C1[C@@H]2[C@@H]3CC[C@@H](C3)[C@@H]2C(=O)N1[C@H]1CC[C@H](C(=O)Nc2ccccn2)CC1 [Compound 4] | 1.8 | 86 | 
COc1ccc(NC(=O)[C@H]2CC[C@H](N3C(=O)[C@@H]4[C@@H]5CC[C@@H](C5)[C@@H]4C3=O)CC2)cn1 [Compound 5] |  | 344 | 75 ± 2
Cc1ccc(NC(=O)[C@H]2CC[C@H](N3C(=O)[C@@H]4[C@@H]5CC[C@@H](C5)[C@@H]4C3=O)CC2)cn1 [Compound 6] |  | 1380 | 48 ± 7
O=C1[C@@H]2[C@@H]3CC[C@@H](C3)[C@@H]2C(=O)N1[C@H]1CC[C@H](C(=O)Nc2cccnc2Cl)CC1 [Compound 7] | 3.1 | 166 | 
O=C1[C@@H]2[C@@H]3CC[C@@H](C3)[C@@H]2C(=O)N1[C@H]1CC[C@H](C(=O)Nc2ccc(C(F)(F)F)nc2)CC1 [Compound 8] |  | 870 | 46 ± 7
O=C1[C@@H]2[C@@H]3CC[C@@H](C3)[C@@H]2C(=O)N1[C@H]1CC[C@H](C(=O)Nc2ccnc(Cl)c2)CC1 [Compound 9] |  | 374 | 68 ± 4
COC(=O)c1ccccc1NC(=O)[C@H]1CC[C@H](N2C(=O)[C@@H]3[C@@H]4CC[C@@H](C4)[C@@H]3C2=O)CC1 [Compound 10] | 44.9 | 67 | 
O=C1c2ccccc2-c2cccc(NC(=O)[C@H]3CC[C@H](N4C(=O)[C@@H]5[C@@H]6CC[C@@H](C6)[C@@H]5C4=O)CC3)c21 [Compound 11] | 42.7 | 193 | 
CC(=O)c1ccccc1NC(=O)C1CCC(N2C(=O)[C@@H]3[C@@H]4CC[C@@H](C4)[C@@H]3C2=O)CC1 (stereo partly shown) [Compound 12] | 117.0 | 23 | 91 ± 1
O=C1[C@@H]2[C@@H]3CC[C@@H](C3)[C@@H]2C(=O)N1[C@H]1CC[C@H](C(=O)Nc2cncc(O)c2)CC1 [Compound 13] | 99.2 | 152 | 
O=C1CCCc2cccc(NC(=O)[C@H]3CC[C@H](N4C(=O)[C@@H]5[C@@H]6CC[C@@H](C6)[C@@H]5C4=O)CC3)c21 [Compound 14] | 69.6 | 19 | 
CC(=O)c1ncccc1NC(=O)[C@H]1CC[C@H](N2C(=O)[C@@H]3[C@@H]4CC[C@@H](C4)[C@@H]3C2=O)CC1 [Compound 17] | 236.2 | 2 | 
CC(=O)c1ccncc1NC(=O)[C@H]1CC[C@H](N2C(=O)[C@@H]3[C@@H]4CC[C@@H](C4)[C@@H]3C2=O)CC1 [Compound 18] | 0.2 | 287 | 
O=C1[C@@H]2[C@@H]3CC[C@@H](C3)[C@@H]2C(=O)N1[C@H]1CC[C@H](C(=O)Nc2ccc(Br)cn2)CC1 [Compound 19] |  |  | 68 ± 4
Cc1ccncc1NC(=O)[C@H]1CC[C@H](N2C(=O)[C@@H]3[C@@H]4CC[C@@H](C4)[C@@H]3C2=O)CC1 [Compound 20] |  |  | 0
Cc1cncc(NC(=O)[C@H]2CC[C@H](N3C(=O)[C@@H]4[C@@H]5CC[C@@H](C5)[C@@H]4C3=O)CC2)c1 [Compound 21] |  |  | 49 ± 5
